The compounds below were run against GpIIb/IIIa receptor (Homo sapiens, UniProt P05106+P08514) (assay: GpIIb/IIIa fibrinogen ELISA (inhibition of the fibrinogen-GpIIb/IIIa interaction)). Settings: isolated activated GpIIb/IIIa receptor coated at 2 μg/ml; fibrinogen ligand, 1 hour incubation; OD at 405 nm.
Type: binding
Method: Microtitre plates were coated overnight with 2 μg/ml isolated activated GpIIb/IIIa receptor. After the unbound receptor had been removed by several washing steps, the surface of the plate was blocked with 1% casein and washed again. The test substance was added at the necessary concentrations, the plates were subsequently incubated for 10 minutes while shaking in a linear shaker. The natural ligand of the GpIIb/IIIa receptor fibrinogen was added thereto. After incubating for 1 hour, unbound fibrinogen was removed by several washing steps and bound fibrinogen was determined in an ELISA reader by determining the change in optical density at 405 nm caused by a peroxidase conjugated monoclonal antibody. Inhibition of the fibrinogen-GpIIb/IIIa interaction leads to low optical densities. The IC50 value was determined by means of a concentration-effect curve.
The GpIIb/IIIa fibrinogen ELISA is a modification of the assay which is described in the following references:
Nachman, R. L. & Leung, L. L. K. (1982): Complex formation of platelet membrane glycoproteins IIb and IIIa with fibrinogen. J. Clin. Invest. 69: 263-269.
Wright, P. S. et al. […]; An echistatin C-terminal peptide activated GpIIb/IIIa binding to fibrinogen, fibronectin, vitronectin and collagen type I and type IV. Biochem. J. 293: 262-267.

GpIIb/IIIa receptor, sequence (P08514 32-887 limits assumed): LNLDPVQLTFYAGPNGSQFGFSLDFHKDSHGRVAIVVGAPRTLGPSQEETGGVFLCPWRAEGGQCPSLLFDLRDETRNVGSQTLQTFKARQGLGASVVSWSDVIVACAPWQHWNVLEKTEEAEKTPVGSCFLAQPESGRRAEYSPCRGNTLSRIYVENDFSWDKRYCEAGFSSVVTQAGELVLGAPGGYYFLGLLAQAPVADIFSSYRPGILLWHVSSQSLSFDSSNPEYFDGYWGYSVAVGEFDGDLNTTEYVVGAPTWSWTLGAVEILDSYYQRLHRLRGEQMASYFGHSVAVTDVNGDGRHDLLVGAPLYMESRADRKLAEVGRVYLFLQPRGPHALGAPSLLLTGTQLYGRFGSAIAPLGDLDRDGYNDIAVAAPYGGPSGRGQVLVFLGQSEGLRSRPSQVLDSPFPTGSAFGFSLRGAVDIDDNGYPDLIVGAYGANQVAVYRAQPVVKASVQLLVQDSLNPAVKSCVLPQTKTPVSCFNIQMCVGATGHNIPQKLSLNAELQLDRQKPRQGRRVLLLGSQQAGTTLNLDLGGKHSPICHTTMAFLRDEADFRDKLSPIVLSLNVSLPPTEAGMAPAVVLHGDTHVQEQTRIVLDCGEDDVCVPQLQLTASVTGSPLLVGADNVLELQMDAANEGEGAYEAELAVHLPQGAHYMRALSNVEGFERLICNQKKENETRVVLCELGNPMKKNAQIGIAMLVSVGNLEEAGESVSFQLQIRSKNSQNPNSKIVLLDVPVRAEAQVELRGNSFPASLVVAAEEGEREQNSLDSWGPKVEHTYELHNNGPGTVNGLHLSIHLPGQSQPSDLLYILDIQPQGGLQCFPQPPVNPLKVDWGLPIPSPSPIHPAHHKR
GpIIb/IIIa receptor, sequence (P08514 891-1039 partner limits assumed): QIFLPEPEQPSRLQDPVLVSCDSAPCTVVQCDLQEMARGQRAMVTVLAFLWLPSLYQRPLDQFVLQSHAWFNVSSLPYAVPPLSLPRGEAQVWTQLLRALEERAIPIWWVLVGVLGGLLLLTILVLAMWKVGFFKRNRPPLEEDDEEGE
GpIIb/IIIa receptor, sequence (P05106 27-788): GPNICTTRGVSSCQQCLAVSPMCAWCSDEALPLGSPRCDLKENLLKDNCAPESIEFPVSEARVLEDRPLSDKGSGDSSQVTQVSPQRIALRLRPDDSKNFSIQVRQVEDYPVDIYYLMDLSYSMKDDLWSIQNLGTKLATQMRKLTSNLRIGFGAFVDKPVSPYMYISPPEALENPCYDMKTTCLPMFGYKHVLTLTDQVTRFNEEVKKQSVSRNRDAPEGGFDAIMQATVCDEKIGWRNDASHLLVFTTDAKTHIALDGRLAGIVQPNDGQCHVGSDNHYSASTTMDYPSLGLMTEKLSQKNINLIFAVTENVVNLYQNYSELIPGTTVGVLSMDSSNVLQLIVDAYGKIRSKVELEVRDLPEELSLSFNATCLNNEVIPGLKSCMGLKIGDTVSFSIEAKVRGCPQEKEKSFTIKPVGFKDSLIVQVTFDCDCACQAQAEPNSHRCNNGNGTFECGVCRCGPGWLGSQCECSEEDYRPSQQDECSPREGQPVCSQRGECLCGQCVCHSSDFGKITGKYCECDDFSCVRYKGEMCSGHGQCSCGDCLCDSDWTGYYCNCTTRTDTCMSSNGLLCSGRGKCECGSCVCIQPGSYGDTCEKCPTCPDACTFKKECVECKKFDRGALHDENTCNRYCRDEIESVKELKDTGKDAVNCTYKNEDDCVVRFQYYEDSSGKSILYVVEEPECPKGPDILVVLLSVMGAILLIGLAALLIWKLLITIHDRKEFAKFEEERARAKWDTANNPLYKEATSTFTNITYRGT

Row | SMILES | IC50 [nM]
1 | O=C(O)C1CCN(CC2CN(C3CCN(c4ccncc4)CC3)C(=O)O2)CC1 (racemic) [Example 2, 1-[(rac]-2-Oxo-3-(3,4,5,6-tetrahydro-2H-[1,4']bipyridinyl-4-yl)-oxazolidin-5-ylmethyl]-piperidine-4-carboxylic acid] | < 300
2 | O=C(O)C=C1CCN(CC2CN(C3CCN(c4ccncc4)CC3)C(=O)O2)CC1 (racemic) [Example 3, {1-[(rac)-2-Oxo-3-(3,4,5,6-tetrahydro-2H-[1,4']bipyridinyl-4yl)-oxazolidin-5-ylmethyl]-piperidin-4-ylidene}-acetic acid] | 1400
3 | O=C(O)C1CCN(CC2OC(=O)N(C3CCN(c4ccncc4)CC3)C2c2ccccc2)CC1 (stereo not drawn) [10 a)] | 300
4 | O=C(O)C1CCC(O)(CC2CN(C3CCN(c4ccncc4)CC3)C(=O)O2)CC1 (stereo not drawn) [10 c)] | < 300
5 | O=C(O)C1CCN(C[C@H]2CN(C3CCN(c4ccncc4)CC3)C(=O)O2)CC1 [Example 1, 1-[(5S)-2-oxo-3-(3,4,5,6-tetrahydro-2H-[1,4']bipyridinyl-4-yl)-oxazolidin-5-ylmethyl]-piperidine-4-carboxylic acid] | < 300

Next, values leading:

Row | IC50 [nM] | SMILES
6 | 1000 | O=C(O)CC1(O)CCN(CC2CN(C3CCN(c4ccncc4)CC3)C(=O)O2)CC1 (stereo not drawn) [Example 5, {4-Hydroxy-1-[2-oxo-3-(3,4,5,6-tetrahydro-2H-[1,4']bipyridinyl-4-yl)-oxazolidin-5-ylmethyl]-piperidin-4-yl}acetic acid]
7 | < 300 | CC1C(CN2CCC(C(=O)O)CC2)OC(=O)N1C1CCN(c2ccncc2)CC1 (stereo not drawn) [Example 7, 1-[4-Methyl-2-oxo-3-(3,4,5,6-tetrahydro-2H-[1,4']bipyridinyl-4-yl)-oxazolidin-5-ylmethyl]-piperidine-4-carboxylic acid]
8 | 300 | O=C(O)C1CCN(CC2CN(C3CCN(c4ccncn4)CC3)C(=O)O2)CC1 (stereo not drawn) [Example 8, 1-[2-Oxo-3-(1-pyrimidin-4-yl-piperidin-4-yl)-oxazolidin-5-ylmethyl]-piperidine-4-carboxylic acid]
9 | 70 | O=C(O)C1CCN(CC2CN(C3CCN(c4ccnc(NCc5ccccc5)n4)CC3)C(=O)O2)CC1 (stereo not drawn) [Example 9, 1-{3-[1-(2-Benzylamino-pyrimidin-4-yl)-piperidin-4-yl]-2-oxo-oxazolidin-5-ylmethyl}-piperidine-4-carboxylic acid]
10 | 600 | C[C@]1(CN2CCC(C(=O)O)CC2)CN(C2CCN(c3ccncc3)CC2)C(=O)O1 [No. 78, (5S)-1-[5-Methyl-2-oxo-3-(3,4,5,6-tetrahydro-2H-[1,4']bipyridinyl-4-yl)-oxazolidin-5-ylmethyl]-piperidine-4-carboxylic acid]
11 | 1300 | O=C(O)C1CCN(CC2OC(=O)N(C3CCN(c4ccncc4)CC3)C2c2cccc(C(F)(F)F)c2)CC1 (stereo not drawn) [No. 79, 1-[2-Oxo-3-(3,4,5,6-tetrahydro-2H-[1,4']bipyridinyl-4-yl)-4-(3-trifluoromethylphenyl)-oxazolidin-5-ylmethyl]-piperidine-4-carboxylic acid]
12 | 500 | O=C(O)C1CCN(CC2OC(=O)N(C3CCN(c4ccncc4)CC3)C2c2ccc(Cl)cc2)CC1 (stereo not drawn) [No. 80, 1-[4-(4-Chlorophenyl)-2-oxo-3-(3,4,5,6-tetrahydro-2H-[1,4']bipyridinyl-4-yl)-oxazolidin-5-ylmethyl]-piperidine-4-carboxylic acid]
